Data: patent US9486534B2, “Niacin conjugated fatty acid mixtures and their uses” (Catabasis Pharmaceuticals, Inc., priority 2009, dated 2016)

Tests used:
[1] = system: SCD (steroyl CoA desaturase); assay: Effect on SREBP-1c target genes in HepG2 cells, real time PCR: SCD; format: cell-based; details: HepG2 cells stimulated with oleate, 50 μM, 6 hours, normalized to 18S; FIG. 2
Method: (§1) HepG2 cells (ATCC) were seeded at 20,000 cells per well in 96 well plates. After adhering overnight, growth media (1.0% FBS in DMEM) was removed and cells were serum starved for 24 hours in DMEM containing 1% fatty acid free bovine serum albumin (BSA, Sigma). […] Cells were incubated for 6 hours and then washed with PBS. RNA was reverse-transcribed using the cells to cDNA reagents according to standard protocols (outlined in Applied Biosystem StepOne Real-time PCR protocols). Real time PCR of transcripts was performed with Taqman assays for the three specific genes FASN (fatty acid synthase), SCD (steroyl CoA desaturase) and ApoA1 (apolipoprotein A1). In all three cases, 18S-VIC® was used as a normalization control.

[2] = system: FASN (fatty acid synthase); assay: Effect on SREBP-1c target genes in HepG2 cells, real time PCR: FASN; format: cell-based; details: HepG2 cells stimulated with oleate, 50 μM, 6 hours, normalized to 18S; FIG. 2
Method: as §1

[3] = system: ApoB secretion in HepG2 cells; details: 3 concentrations (50, 100 and 200 μM), compared to niacin at 5 mM, FIG. 1
Method: HepG2 cells (ATCC) are seeded at 10,000 cells per well in 96 well plates. After adhering overnight, growth media (10% FBS in DMEM) is removed and cells are serum starved for 24 hours in DMEM containing 0.1% fatty acid free bovine serum albumin (BSA, Sigma). Cells are then treated with a compound. Niacin at 5 mM is used as a positive control. All treatments are performed in triplicate. Simultaneous with compound treatment, ApoB secretion is stimulated with addition of 0.1 oleate complexed to fatty acid free BSA in a 5:1 molar ratio. Incubation with a compound and oleate is conducted for 24 hours. Media supernatants are removed and ApoB concentrations are measured using ELISA kits (Mabtech AB). Percent inhibition of ApoB secretion is determined by normalizing data to vehicle treated wells. For a given compound, an IC50 (concentration at which 50% of ApoB secretion is inhibited) can also be determined by using a 4 parameter-fit inhibition curve model (Graph Pad Prism®). In each experiment, cell viability is determined using the ATPlite 1-Step kit (Perkin Elmer), such that compound effects due to cytotoxicity can be monitored.
The level of ApoB secretion was compared to that of niacin, evaluated at 5 mM concentration.

[4] = system: ApoA1 (apolipoprotein A1); assay: Effect on SREBP-1c target genes in HepG2 cells, real time PCR: ApoA1; format: cell-based; details: HepG2 cells stimulated with oleate, 50 μM, 6 hours, normalized to 18S; FIG. 2
Method: as §1

CC/C=C\C/C=C\C/C=C\C/C=C\C/C=C\C/C=C\CCC(=O)NCCNC(=O)c1cccnc1 [I-7, N-(2-(4Z,7Z,10Z,13Z,16Z,19Z)-docosa-4,7,10,13,16,19-hexaenamidoethyl)nicotinamide] was tested, and the SCD gene expression [1] was “statistically significant inhibition”, the FASN gene expression [2] was “statistically significant inhibition” and the “inhibition of ApoB secretion” value [3] was “significant inhibition”. The ApoA1 gene expression [4] was “increase”.

For CC/C=C\C/C=C\C/C=C\C/C=C\C/C=C\CCCC(=O)NCCNC(=O)c1cccnc1 [I-8, N-(2-(5Z,8Z,11Z,14Z,17Z)-eicosa-5,8,11,14,17-pentaenamidoethyl)nicotinamide], the SCD gene expression [1] was “statistically significant inhibition”, the FASN gene expression [2] was “statistically significant inhibition” and the ApoA1 gene expression [4] was “increase”.
